Laboratory results as given in paper PMC10584882 (Communications Biology, 2023).
Where “and” joins values, the source holds several entries; their conditions need not be identical. Identical values can stand only once.

Columns and labels:
[1] = biological target: T1, human CatK (Homo sapiens, UniProt P43235); assay: Cathepsin inhibition test, CatK; assay type: biochemical
T1 construct: made in house
T1 sequence (P43235 115-329): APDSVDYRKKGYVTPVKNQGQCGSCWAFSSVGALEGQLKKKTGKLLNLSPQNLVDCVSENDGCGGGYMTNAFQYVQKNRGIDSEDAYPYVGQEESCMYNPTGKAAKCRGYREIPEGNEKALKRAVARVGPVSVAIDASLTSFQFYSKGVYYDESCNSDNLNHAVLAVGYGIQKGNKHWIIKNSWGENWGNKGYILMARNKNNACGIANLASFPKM

[2] = test system: SARS-CoV-2; assay: Viral loading determination via RT-qPCR in VERO-CCL81 cells; assay type: cell-based; details: for Viral titer (% control): VERO CCL81, RT-qPCR, experiments 1 and 2
[3] = test system: SARS-CoV-2; assay: Cytopathic effect inhibition assay in VERO-CCL81 cells; assay type: cell-based; details: for CPE inhibition (%): VERO CCL81
[4] = test system: VERO-CCL81 cells; assay: Cell viability assay (CellTiter-Glo), VERO-CCL81; assay type: cell-based; details: for Cell viability (% control): VERO CCL81, 72 h, replicates of experiments 1 and 2
Description: (§1) VERO-CCL81 was seeded in 96-well plates at a density of 1.5×10^4 cells/well, while LC-HK2 was seeded at a density of 3×10^4 cells/well, following 24 h incubation at 37 °C and 5% CO2 atmosphere. The cell culture media was replaced by serial dilutions of the compounds and the cell viability was determined 72 h post-treatment via CellTiter-Glo® Luminescent Cell Viability Assay (Promega), following the manufacturer’s instructions. Luminescent signal was recorded using a CLARIOstar multi-mode microplate reader (BMG Labtech, Germany). Graphs were generated using GraphPad Prism software version 8.0 (La Jolla, CA, USA, www.graphpad.com). Samples deemed to be technical failures and extreme outlier were removed.

[5] = test system: LC-HK2 cells; assay: Cell viability assay (CellTiter-Glo), LC-HK2; assay type: cell-based, human; details: for Cell viability (% control): LC-HK2, 72 h, replicates
Description: as §1

[6] = test system: SARS-CoV-2-GFP; parameters: method as in PMID 33811162; details: VERO E6 cell-based SARS-CoV-2 infection assays; cited from earlier work

CCCC[C@@H](C=O)NC(=O)[C@H](CC(C)C)NC(=O)OCc1ccccc1 [Calpeptin, reference compound]
Residual activity (Vi/V0) ([1]; Fig. S3 panel a, inhibitor 0.010 nM, single replicates, 10 pM): 0.8228 and 0.7849 and 0.8924 | remaining activity at 10 pM ([1]; Fig. S3 panel a, inhibitor 0.010 nM, single replicates, read-out: Residual activity (Vi/V0)): 79.2% | Residual activity (Vi/V0) ([1]; Fig. S3 panel a, inhibitor 0.018 nM, single replicates, 18 pM): 0.692 and 0.7935 and 0.8793 and 0.9792 | Residual activity (Vi/V0) ([1]; Fig. S3 panel a, inhibitor 0.032 nM, single replicates, 32 pM): 0.6266 and 0.7672 and 0.8012 and 0.8701 | Residual activity (Vi/V0) ([1]; Fig. S3 panel a, inhibitor 0.058 nM, single replicates, 58 pM): 0.6214 and 0.5994 and 0.7911 and 0.9302 | Residual activity (Vi/V0) ([1]; Fig. S3 panel a, inhibitor 0.105 nM, single replicates, 0.000105 µM): 0.4801 and 0.5677 and 0.7764 | Residual activity (Vi/V0) ([1]; Fig. S3 panel a, inhibitor 0.189 nM, single replicates, 0.000189 µM): 0.4602 and 0.558 and 0.5219 and 0.7569 | Residual activity (Vi/V0) ([1]; Fig. S3 panel a, inhibitor 0.340 nM, single replicates, 0.00034 µM): 0.3878 and 0.4931 and 0.523 | remaining activity at 0.00034 µM ([1]; Fig. S3 panel a, inhibitor 0.340 nM, single replicates, read-out: Residual activity (Vi/V0)): 34.5% | Residual activity (Vi/V0) ([1]; Fig. S3 panel a, inhibitor 0.612 nM, single replicates, 0.000612 µM): 0.4226 and 0.3636 and 0.4242 | remaining activity at 0.000612 µM ([1]; Fig. S3 panel a, inhibitor 0.612 nM, single replicates, read-out: Residual activity (Vi/V0)): 40.6% | Residual activity (Vi/V0) ([1]; Fig. S3 panel a, inhibitor 1.103 nM, single replicates, 0.001103 µM): 0.2715 and 0.287 and 0.3208 | remaining activity at 0.001103 µM ([1]; Fig. S3 panel a, inhibitor 1.103 nM, single replicates, read-out: Residual activity (Vi/V0)): 28.1% | Residual activity (Vi/V0) ([1]; Fig. S3 panel a, inhibitor 1.985 nM, single replicates, 0.001985 µM): 0.3296 and 0.262 and 0.2126 | remaining activity at 0.001985 µM ([1]; Fig. S3 panel a, inhibitor 1.985 nM, single replicates, read-out: Residual activity (Vi/V0)): 22.7% | Residual activity (Vi/V0) ([1]; Fig. S3 panel a, inhibitor 3.572 nM, single replicates, 0.003572 µM): 0.1196 and 0.134 and 0.13 | remaining activity at 0.003572 µM ([1]; Fig. S3 panel a, inhibitor 3.572 nM, single replicates, read-out: Residual activity (Vi/V0)): 12.2% | Residual activity (Vi/V0) ([1]; Fig. S3 panel a, inhibitor 6.430 nM, single replicates, 0.00643 µM): 0.07914 and 0.03985 and 0.09073 and 0.08937 | Residual activity (Vi/V0) ([1]; Fig. S3 panel a, inhibitor 11.547 nM, single replicates, 0.011547 µM): 0.02749 and 0.03914 and 0.04269 | remaining activity at 0.011547 µM ([1]; Fig. S3 panel a, inhibitor 11.547 nM, single replicates, read-out: Residual activity (Vi/V0)): 3.75% | Residual activity (Vi/V0) ([1]; Fig. S3 panel a, inhibitor 20.833 nM, single replicates, 0.020833 µM): 0.006913 and 0.01907 and 0.01563 | Residual activity (Vi/V0) ([1]; Fig. S3 panel a, inhibitor 37.500 nM, single replicates, 0.0375 µM): -0.03871 and -0.04863 and 0.01233 and 0.01242 | Ki ([1]; mean with standard deviation and 95% confidence interval, pH 5.5, 37 °C): 0.061 nM | EC50 ([2]; Severe acute respiratory syndrome coronavirus 2, VERO-CCL81, RT-qPCR, 48 h post-infection, read-out: Viral titer EC50): 990 nM | Viral titer (% control) ([2]; 0.0781 μM): 100 % control | Viral titer (% control) ([2]; 0.1563 μM): 100 % control | Viral titer (% control) ([2]; 0.3125 μM): 100 % control and 79.17 % control | Viral titer (% control) ([2]; 0.625 μM): 59.82 % control and 89.92 % control | Viral titer (% control) ([2]; 1.25 μM): 52.69 % control and 49.08 % control | Viral titer (% control) ([2]; 2.5 μM): 27.29 % control and 39.96 % control | Viral titer (% control) ([2]; 5 μM): 41.34 % control and 28.43 % control | Viral titer (% control) ([2]; 10 μM): 15.97 % control and 10.75 % control | inhibition at 0.3125 µM ([3]; Severe acute respiratory syndrome coronavirus 2, VERO CCL81, 0.3125 μM, two experiments, read-out: CPE inhibition (%)): 26.9% | inhibition at 0.625 µM ([3]; Severe acute respiratory syndrome coronavirus 2, VERO CCL81, 0.625 μM, two experiments, read-out: CPE inhibition (%)): 31.8% | inhibition at 1.25 µM ([3]; Severe acute respiratory syndrome coronavirus 2, VERO CCL81, 1.25 μM, two experiments, read-out: CPE inhibition (%)): 41.2% | inhibition at 2.5 µM ([3]; Severe acute respiratory syndrome coronavirus 2, VERO CCL81, 2.5 μM, two experiments, read-out: CPE inhibition (%)): 49.3% | inhibition at 5 µM ([3]; Severe acute respiratory syndrome coronavirus 2, VERO CCL81, 5 μM, two experiments, read-out: CPE inhibition (%)): 61.9% | inhibition at 10 µM ([3]; Severe acute respiratory syndrome coronavirus 2, VERO CCL81, 10 μM, two experiments, read-out: CPE inhibition (%)): 64.6% | EC50 ([3]; Severe acute respiratory syndrome coronavirus 2, VERO-CCL81, CellTiter-Glo, 48 h post-infection, read-out: CPE inhibition EC50): 400 nM | CPE inhibition (%) ([3]; 0.1563 μM, two experiments): 12.75% and 5.21% | CPE inhibition (%) ([3]; 0.3125 μM, two experiments): 21.14% | CPE inhibition (%) ([3]; 0.625 μM, two experiments): 29.81% | CPE inhibition (%) ([3]; 1.25 μM, two experiments): 49.13% | CPE inhibition (%) ([3]; 2.5 μM, two experiments): 33.89% | CPE inhibition (%) ([3]; 5 μM, two experiments): 61.52% | CPE inhibition (%) ([3]; 10 μM, two experiments): 53.9% | Cell viability (% control) ([4]; 0.0781 μM): 94.74 % control and 101.25 % control and 101.91 % control | Cell viability (% control) ([4]; 0.1563 μM): 97.56 % control and 99.32 % control and 100.01 % control | Cell viability (% control) ([4]; 0.3125 μM): 82.19 % control and 89.43 % control and 92.71 % control and 95.68 % control and 100.03 % control and 106.22 % control | Cell viability (% control) ([4]; 0.625 μM): 82.29 % control and 95.76 % control and 97.52 % control and 95.98 % control and 103.97 % control and 109.96 % control | Cell viability (% control) ([4]; 1.25 μM): 89.05 % control and 94.79 % control and 98.25 % control and 97.91 % control and 104.77 % control and 107.22 % control | Cell viability (% control) ([4]; 2.5 μM): 86.26 % control and 94.8 % control and 103.32 % control and 94.24 % control and 103.27 % control and 108.67 % control | Cell viability (% control) ([4]; 5 μM): 90.56 % control and 101.72 % control and 106.83 % control and 95.97 % control and 102.4 % control and 105.71 % control | Cell viability (% control) ([4]; 10 μM): 85.37 % control and 97.81 % control and 103.34 % control and 84.83 % control and 98.42 % control and 92.92 % control | cytotoxicity (in words) ([4]; VERO-CCL81, 72 h): no cytotoxicity up to low micromolar concentrations | cytotoxicity (in words) ([5]; LC-HK2, 72 h): no cytotoxicity up to low micromolar concentrations | Cell viability (% control) ([5]; 0.0006 μM): 102.39 % control and 97.09 % control and 90.2 % control | Cell viability (% control) ([5]; 0.0012 μM): 105.44 % control and 96.04 % control and 89.58 % control | Cell viability (% control) ([5]; 0.0024 μM): 109.38 % control and 90.68 % control and 83.12 % control | Cell viability (% control) ([5]; 0.0049 μM): 106.45 % control and 86.68 % control and 80.82 % control | Cell viability (% control) ([5]; 0.0098 μM): 103.61 % control and 82.95 % control and 76.92 % control | Cell viability (% control) ([5]; 0.0195 μM): 100.9 % control and 86.53 % control and 77.59 % control | Cell viability (% control) ([5]; 0.0391 μM): 106.77 % control and 84.3 % control and 75.79 % control | Cell viability (% control) ([5]; 0.0781 μM): 97.38 % control and 80.51 % control and 79.02 % control and 97.54 % control and 99.61 % control | Cell viability (% control) ([5]; 0.1563 μM): 92.74 % control and 97.96 % control and 106.67 % control and 94.71 % control and 97.7 % control and 98.23 % control | Cell viability (% control) ([5]; 0.3125 μM): 85.53 % control and 96.17 % control and 104.18 % control and 94.18 % control and 98.15 % control and 95.62 % control | Cell viability (% control) ([5]; 0.625 μM): 92.03 % control and 97.64 % control and 102.17 % control and 95.74 % control and 98.42 % control and 100.55 % control | Cell viability (% control) ([5]; 1.25 μM): 89.04 % control and 94.62 % control and 99.72 % control and 93.66 % control and 97.57 % control and 100.65 % control | Cell viability (% control) ([5]; 2.5 μM): 87.58 % control and 93.98 % control and 97.34 % control and 91.87 % control and 96.78 % control and 96.3 % control | Cell viability (% control) ([5]; 5 μM): 84.13 % control and 88.53 % control and 93.5 % control and 84.79 % control and 90.37 % control and 89.81 % control | Cell viability (% control) ([5]; 10 μM): 82.98 % control and 84.95 % control and 87.98 % control and 79.13 % control and 81.86 % control and 83.76 % control | Cell viability (% control) ([5]; 100 μM): 28.28 % control and 43.21 % control and 44.92 % control | concentration giving high suppression of virus replication [6]: below 100 nM
